# Measurements from patent US8470889B2 (TRT Pharma Inc., priority 2008, dated 2013).
# Like-named read-outs stand apart in the source and are kept apart here.
# Legend:
# LNCaP cells [1] = tested on: LNCaP cells;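 further: MTT formazan absorbance at 600 nm read after 72 h of compound exposure, IC50 fitted by nonlinear regression of dose-response curves, samples run in triplicate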
# Method: (§1) MDA PCa 2b was seeded at the same density in medium BRFF-HPC1 (Athena Enzyme Systems, Baltimore, Md., USA) supplemented with 20% FBS. After overnight incubation, the medium was changed to a fresh medium containing different concentrations of test compounds diluted from stock DMSO solution. The final concentration of DMSO is 0.5%. After 72 h of incubation with test compounds, 20 μL of 3-(4,5-dimethyl thiazol-2-yl)-2,5-diphenyltetrazolium bromide (MTT) solution (5 mg/mL in PBS) were added to each well and incubated further for 2 h. Next, the supernatant was aspirated and the MTT formazan formed by metabolically viable cells was dissolved in 100 μL of isopropanol. The plates were mixed for 30 min, and the absorbance was measured at 600 nm on a plate reader (FLUOstar OPTIMA, BMG LabTech). All samples were in triplicate. The IC50 values were determined from dose-response curves by nonlinear regression using PRISM v5.00 (GraphPad Software Inc, La Jolla, Calif., USA).
# (§2) The in vitro cytotoxicity of 1-20 were evaluated by MTT assays in a panel of prostate cancer cell lines, including LNCaP, MDA PCa 2b, 22Rv1, C4-2B and PC-3.
# 22Rv1 cells [2] = tested on: 22Rv1 cells
# Method: as §1, §2
# C4-2B cells [3] = tested on: C4-2B cells;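 further: cells treated with a dilution series for 72 h, then MTT added and absorbance read at 600 nm, IC50 fitted from dose-response curves by nonlinear regression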
# PC-3 cells [4] = tested on: PC-3 cells
# LNCaP cells [5] = assay: MTT cell growth inhibition, LNCaP;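 further: MTT formazan absorbance at 600 nm read after 72 h of compound exposure, IC50 fitted by nonlinear regression of dose-response curves, samples run in triplicate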
# Method: as §1, §2
# PC-3 cells [6] = assay: MTT cell growth inhibition, PC-3; details: read-out: Cellular IC50 (μM) PC-3, Table 9
# 22Rv1 cells [7] = assay: MTT cell growth inhibition, 22Rv1; details: read-out: Cellular IC50 (μM) 22Rv1; Table 9; MTT
# Method: as §1, §2
# C4-2B cells [8] = assay: MTT cell growth inhibition, C4-2B; details: read-out: Cellular IC50 (μM) C4-2B, Table 9;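 further: cells treated with a dilution series for 72 h, then MTT added and absorbance read at 600 nm, IC50 fitted from dose-response curves by nonlinear regression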
# [9] = read-out: Cellular IC50 (μM) LNCaP, Table 9
# Method for MDA PCa 2b cells: as §1, §2
SMILES,IC50 (LNCaP cells [1]),IC50 (22Rv1 cells [2]),IC50 (PC-3 cells [4]),further results
COc1cc(/C=C/C(=O)/C=C/C2=C(C)CCCC2(C)C)ccc1O [Compound B1],9.5 µM,–,21.3 µM,–
COc1ccc(/C=C/C(=O)/C=C/C2=C(C)CCCC2(C)C)cc1O [Compound B2],9.9 µM,–,37.4 µM,–
COc1ccc(/C=C/C(=O)/C=C/C2=C(C)CCCC2(C)C)cc1OC [Compound B3],9.5 µM,–,42 µM,–
CCOc1ccc(/C=C/C(=O)/C=C/C2=C(C)CCCC2(C)C)cc1OCC [Compound B4],8.2 µM,–,> 50 µM,–
CC1=C(/C=C/C(=O)/C=C/c2ccccc2F)C(C)(C)CCC1 [Compound B8],10.7 µM,–,22.1 µM,–
CC1=C(/C=C/C(=O)/C=C/c2ccc(F)cc2)C(C)(C)CCC1 [Compound B10],7.3 µM,–,25.8 µM,–
CC1=C(/C=C/C(=O)/C=C/c2ccc(O)c([N+](=O)[O-])c2)C(C)(C)CCC1 [Compound B12],26.8 µM,–,> 50 µM,–
CC1=C(/C=C/C(=O)/C=C/c2cccc(C)c2)C(C)(C)CCC1 [Compound B14],17.8 µM,–,35 µM,–
CC1=C(/C=C/C(=O)/C=C/c2ccc(-c3ccccc3)cc2)C(C)(C)CCC1 [Compound B15],14.8 µM,–,47.8 µM,–
CC1(C)CCC(O)C=C1/C=C/C(=O)/C=C/c1ccc2c(c1)OCCO2 (stereo not shown) [Compound B78],–,–,–,IC50 (PC-3 cells [6]): 23.2 µM; IC50 (LNCaP cells [5]; [9]): 10.8 µM; IC50 (22Rv1 cells [7]): 19.3 µM; IC50 (C4-2B cells [8]): 10.3 µM
CC1(C)CCC(O)C=C1/C=C/C(=O)/C=C/c1ccc2c(c1)CCO2 (stereo not shown) [Compound B79],–,–,–,IC50 (PC-3 cells [6]): 14.8 µM; IC50 (LNCaP cells [5]; [9]): 4.7 µM; IC50 (22Rv1 cells [7]): 10.4 µM; IC50 (C4-2B cells [8]): 5.6 µM
CC1(C)CCC(O)C=C1/C=C/C(=O)/C=C/c1c[nH]c2ccccc12 (stereo not shown) [Compound B81],–,–,–,IC50 (PC-3 cells [6]): 15.2 µM; IC50 (LNCaP cells [5]; [9]): 4.6 µM; IC50 (22Rv1 cells [7]): 9.1 µM; IC50 (C4-2B cells [8]): 2.3 µM
Cc1ccc2[nH]cc(/C=C/C(=O)/C=C/C3=CC(O)CCC3(C)C)c2c1 (stereo not shown) [Compound B82],–,–,–,IC50 (PC-3 cells [6]): 10.6 µM; IC50 (LNCaP cells [5]; [9]): 3.8 µM; IC50 (22Rv1 cells [7]): 7.3 µM; IC50 (C4-2B cells [8]): 6.8 µM
CC1(C)CCC(O)C=C1/C=C/C(=O)/C=C/c1c[nH]c2ccc(Cl)cc12 (stereo not shown) [Compound B84],–,–,–,IC50 (PC-3 cells [6]): 24.5 µM; IC50 (LNCaP cells [5]; [9]): 17.8 µM; IC50 (22Rv1 cells [7]): 14.3 µM; IC50 (C4-2B cells [8]): 18.2 µM
CC1(C)CCC(O)C=C1/C=C/C(=O)/C=C/c1c[nH]c2ccc(Br)cc12 (stereo not shown) [Compound B85],–,–,–,IC50 (PC-3 cells [6]): 5.8 µM; IC50 (LNCaP cells [5]; [9]): 2.2 µM; IC50 (22Rv1 cells [7]): 4 µM; IC50 (C4-2B cells [8]): 4.8 µM
Cc1cccc2c(/C=C/C(=O)/C=C/C3=CC(O)CCC3(C)C)c[nH]c12 (stereo not shown) [Compound B86],–,–,–,IC50 (PC-3 cells [6]): 6.4 µM; IC50 (LNCaP cells [5]; [9]): 2.6 µM; IC50 (22Rv1 cells [7]): 5.3 µM; IC50 (C4-2B cells [8]): 3.6 µM
CC1(C)CCC(O)C=C1/C=C/C(=O)/C=C/c1c(-c2ccccc2)[nH]c2ccccc12 (stereo not shown) [Compound B87],–,–,–,IC50 (PC-3 cells [6]): 13.7 µM; IC50 (LNCaP cells [5]; [9]): 3.2 µM; IC50 (22Rv1 cells [7]): 12.6 µM; IC50 (C4-2B cells [8]): 2.2 µM
Cn1cc(/C=C/C(=O)/C=C/C2=CC(O)CCC2(C)C)c2ccccc21 (stereo not shown) [Compound B88],–,–,–,IC50 (PC-3 cells [6]): 54.9 µM; IC50 (LNCaP cells [5]; [9]): 9.4 µM; IC50 (22Rv1 cells [7]): 21 µM; IC50 (C4-2B cells [8]): 11.8 µM
CC1(C)CCC(O)C=C1/C=C/C(=O)/C=C/c1ccc2[nH]ccc2c1 (stereo not shown) [Compound B89],–,–,–,IC50 (PC-3 cells [6]): 3.1 µM; IC50 (LNCaP cells [5]; [9]): 1.5 µM; IC50 (22Rv1 cells [7]): 2.3 µM; IC50 (C4-2B cells [8]): 1.6 µM
CC1(C)CCC(O)C=C1/C=C/C(=O)/C=C/c1cccc2cc[nH]c12 (stereo not shown) [Compound B90],–,–,–,IC50 (PC-3 cells [6]): 2.1 µM; IC50 (LNCaP cells [5]; [9]): 1.4 µM; IC50 (22Rv1 cells [7]): 2.1 µM; IC50 (C4-2B cells [8]): 1.7 µM
CC1(C)CCC(O)C=C1/C=C/C(=O)/C=C/c1cc2ccccc2s1 (stereo not shown) [Compound B93],–,–,–,IC50 (PC-3 cells [6]): 23.8 µM; IC50 (LNCaP cells [5]; [9]): 12.9 µM; IC50 (22Rv1 cells [7]): 17.6 µM; IC50 (C4-2B cells [8]): 9.9 µM
CC1(C)CCC(O)C=C1/C=C/C(=O)/C=C/c1ccc2ccccc2n1 (stereo not shown) [Compound B94],–,–,–,IC50 (PC-3 cells [6]): 5.5 µM; IC50 (LNCaP cells [5]; [9]): 2 µM; IC50 (22Rv1 cells [7]): 2.7 µM; IC50 (C4-2B cells [8]): 1.5 µM
CC1(C)CCC(O)C=C1/C=C/C(=O)/C=C/c1ccnc2ccccc12 (stereo not shown) [Compound B96],–,–,–,IC50 (PC-3 cells [6]): 2.2 µM; IC50 (LNCaP cells [5]; [9]): 1.5 µM; IC50 (22Rv1 cells [7]): 1.2 µM; IC50 (C4-2B cells [8]): 1.5 µM

# Further compounds by falling IC50 (PC-3 cells [4]), results first:
IC50 (LNCaP cells [1]),IC50 (22Rv1 cells [2]),IC50 (PC-3 cells [4]),SMILES,further results
22.6 µM,18.4 µM,19 µM,CC1=CCCC(C)(C)C1/C=C/C(=O)/C=C/c1ccccc1C(F)(F)F (racemic) [Compound B16],IC50 (C4-2B cells [3]): 11.7 µM
4.2 µM,–,18.9 µM,CC1=C(/C=C/C(=O)/C=C/c2cc([N+](=O)[O-])ccc2Cl)C(C)(C)CCC1 [Compound B13],–
–,–,18.7 µM,CC1=C(/C=C/C(=O)/C=C/c2cccc(F)c2)C(C)(C)CCC1 [Compound B9],IC50 (LNCaP cells [5]; read-out: IC50 in LNCaP cells): 12.9 µM
4.4 µM,5.6 µM,16 µM,CC1=C(/C=C/C(=O)/C=C/c2cccc(F)c2)C(C)(C)CCC1O (racemic) [Compound B30],–
4.2 µM,4.1 µM,15 µM,CC1=C(/C=C/C(=O)/C=C/c2ccc([N+](=O)[O-])cc2)C(C)(C)CCC1O (racemic) [Compound B41],–
9.1 µM,–,12 µM,CC1=C(/C=C/C(=O)/C=C/c2ccc(C(F)(F)F)cc2)C(C)(C)CCC1 [Compound B6],–
2.9 µM,3.3 µM,10.4 µM,CC1=C(/C=C/C(=O)/C=C/c2ccccc2F)C(C)(C)CCC1O (racemic) [Compound B29],–
3 µM,3.2 µM,10.2 µM,CC1=C(/C=C/C(=O)/C=C/c2ccc(C(F)(F)F)cc2)C(C)(C)CCC1O (racemic) [Compound B26],IC50 (MDA PCa 2b cells): 9.3 µM
2.7 µM,–,10 µM,CC1=C(/C=C/C(=O)/C=C/c2cccc([N+](=O)[O-])c2)C(C)(C)CCC1 [Compound B11],–
4.9 µM,8.9 µM,8.8 µM,CC1=C(/C=C/C(=O)/C=C/c2c(F)cccc2C(F)(F)F)C(C)(C)CCC1O (racemic) [Compound B37],–
4.7 µM,3.3 µM,7.9 µM,CC1=CCCC(C)(C)C1/C=C/C(=O)/C=C/c1ccc(C(F)(F)F)cc1 (racemic) [Compound B18],IC50 (MDA PCa 2b cells): 7 µM; IC50 (C4-2B cells [3]): 5.2 µM
–,–,7.7 µM,CC1=C(/C=C/C(=O)/C=C/c2cccc(C(F)(F)F)c2)C(C)(C)CCC1 [Compound B5],IC50 (LNCaP cells [5]; read-out: IC50 in LNCaP cells): 2.8 µM
1.8 µM,2.2 µM,7.2 µM,CC1=C(/C=C/C(=O)/C=C/c2cccc(C#N)c2)C(C)(C)CCC1O (racemic) [Compound B39],–
8.7 µM,–,7.2 µM,CC1=C(/C=C/C(=O)/C=C/c2cc(C(F)(F)F)cc(C(F)(F)F)c2)C(C)(C)CCC1 [Compound B7],–
2.1 µM,2.2 µM,7 µM,CC1=C(/C=C/C(=O)/C=C/c2cc(C(F)(F)F)cc(C(F)(F)F)c2)C(C)(C)CCC1O (racemic) [Compound B28],IC50 (MDA PCa 2b cells): 3.5 µM
4.9 µM,–,6.5 µM,COc1cccc(/C=C/C(=O)/C=C/C2=C(C)C(O)CCC2(C)C)c1 (racemic) [Compound B42],–
3.9 µM,7.5 µM,6.2 µM,CC1=C(/C=C/C(=O)/C=C/c2ccc(F)cc2)C(C)(C)CCC1O (racemic) [Compound B31],IC50 (C4-2B cells [3]): 4 µM
4.1 µM,4.4 µM,6.2 µM,CC1=C(/C=C/C(=O)/C=C/c2cccc(C)c2)C(C)(C)CCC1O (racemic) [Compound B38],IC50 (MDA PCa 2b cells): 19 µM
12.2 µM,15.2 µM,5.9 µM,CC1=CCCC(C)(C)C1/C=C/C(=O)/C=C/c1cccc(C)c1 (racemic) [Compound B22],IC50 (C4-2B cells [3]): 6.2 µM
2 µM,1.9 µM,5.8 µM,CC1=C(/C=C/C(=O)/C=C/c2cccc([N+](=O)[O-])c2)C(C)(C)CCC1O (racemic) [Compound B40],IC50 (MDA PCa 2b cells): 6 µM
1.6 µM,9.4 µM,4.8 µM,CC1=CCCC(C)(C)C1/C=C/C(=O)/C=C/c1ccccc1F (racemic) [Compound B19],IC50 (MDA PCa 2b cells): 8.3 µM; IC50 (C4-2B cells [3]): 6 µM
1.8 µM,–,4.7 µM,CCOC(OCC)c1cccc(/C=C/C(=O)/C=C/C2=C(C)C(O)CCC2(C)C)c1 (stereo not shown) [Compound B43],–
2.6 µM,3.8 µM,4.6 µM,CC1=C(/C=C/C(=O)/C=C/c2ccc(C(F)(F)F)cc2F)C(C)(C)CCC1O (racemic) [Compound B35],–
2.9 µM,2.3 µM,3.7 µM,CC1=C(/C=C/C(=O)/C=C/c2ccccc2C(F)(F)F)C(C)(C)CCC1O (racemic) [Compound B24],IC50 (MDA PCa 2b cells): 2.9 µM
1.7 µM,2 µM,3.6 µM,CC1=C(/C=C/C(=O)/C=C/c2cc(C(F)(F)F)ccc2F)C(C)(C)CCC1O (racemic) [Compound B36],–
1.7 µM,3.5 µM,3.1 µM,CC1=CCCC(C)(C)C1/C=C/C(=O)/C=C/c1cc(C(F)(F)F)ccc1F (racemic) [Compound B20],IC50 (MDA PCa 2b cells): 3 µM; IC50 (C4-2B cells [3]): 4.7 µM
1.1 µM,2.4 µM,3 µM,CC1=C(/C=C/C(=O)/C=C/c2cc(F)cc(C(F)(F)F)c2)C(C)(C)CCC1O (racemic) [Compound B33],–
1.1 µM,–,2.1 µM,CC1=C(/C=C/C(=O)/C=C/c2cccc(C(F)(F)F)c2F)C(C)(C)CCC1O (racemic) [Compound B34],–
3.2 µM,–,1.9 µM,CC1=C(/C=C/C(=O)/C=C/c2cc(C(F)(F)F)ccc2C(F)(F)F)C(C)(C)CCC1O (racemic) [Compound B27],IC50 (MDA PCa 2b cells): 4 µM
